Measured values reported in PMC10253817, “Design, Pharmacological Characterization, and Molecular Docking of Minimalist Peptidomimetic Antagonists of α4β1 Integrin” (International Journal of Molecular Sciences, 2023).

Assays:
Format in all cases: cell-based
αMβ2 integrin = biological target: T1, αMβ2 integrin (Homo sapiens, UniProt P05107+P11215); assay: αMβ2 integrin-mediated HL60 cell adhesion to Fg; settings: HL60 cell adhesion to Fg (10 μg/mL), mean ± SD; for IC50: antagonists
T1 construct: HL60 cells, mainly expressing the leukocyte integrin αMβ2; host or cells: HL60 (PMA-treated)
Description: (§1) To this purpose, the ability of the best peptidomimetics to modulate cell adhesion mediated by integrins other than α4β1 was evaluated in HL60 cells, mainly expressing the leukocyte integrin αMβ2, and on K562 cells, mainly expressing α5β1, which shares a β1 subunit with the heterodimer α4β1. […] In contrast, 13 was a moderate promoter of cell adhesion mediated by αMβ2 integrin, behaving as an agonist. Regarding α5β1 integrin, none of the peptidomimetics employed were able to modulate K562 cell adhesion, thus being shown to be completely ineffective toward α5β1 integrin. The reference compound DS-70 was ineffective toward both αMβ2 and α5β1 integrins under the same experimental conditions (Table 3).
(§2) The assays were performed as previously described. Briefly, regarding adhesion assays on Jurkat E6.1 or HL-60 cells, black 96-well plates (Corning Costar) were coated overnight at 4 °C with FN or Fg (10 μg/mL) or VCAM-1 (2 μg/mL) in order to investigate α4β1 integrin-mediated cell adhesion. To avoid any kind of unspecific binding, plates were incubated with 100 μL/well of blocking solution (1% BSA in HBSS) for 30 min at 37 °C. Cells were counted, stained with the CellTracker green CMFDA (12.5 μM, 30 min at 37 °C, Life Technologies Italia, Milan, Italy) and after three washes, were preincubated with increasing concentrations of new compounds (10^−10–10^−4 M) or with the vehicle (methanol) for 30 min at 37 °C.
(§3) Then, cells were plated (500,000/well) on coated wells and incubated for 30 min at 37 °C. Afterwards nonadherent cells were removed via washing with a blocking solution, and the remaining adhered cells were lysed with 0.5% Triton X-100 in PBS (30 min at 4 °C). Green fluorescence was measured (Ex485 nm/Em535 nm) using an EnSpire Multimode Plate Reader (PerkinElmer, Waltham, MA, USA).
(§4) In both types of adhesion assay, the number of adherent cells was determined via comparison with a standard curve made in the same plate. Experiments were carried out in quadruplicate and repeated at least three times. Data analysis and EC50 or IC50 values were calculated using GraphPad Prism 9.5.1 (GraphPad Software, San Diego, CA, USA).
Cell culture. Jurkat E6.1 (expressing both α4β1 and αLβ2 integrin), K562 (expressing α5β1 integrin) and HL60 (expressing α Mβ2 integrin) cell lines were purchased from ATCC (Rockville, MD, USA); these cells were routinely cultured in RPMI-1640 (Life Technologies) supplemented with 1% glutamine and 10% fetal bovine serum (FBS). Cells were grown at 37 °C under 5% CO 2 humidified atmosphere. […]

α4β1 integrin [1] = biological target: T2, α4β1 integrin (Homo sapiens, UniProt P05556+P13612); assay: HUTS-21 monoclonal antibody binding (α4β1 integrin conformation), flow cytometry; settings: Jurkat E6.1 cells; compounds 1–100 nM; FN 10 µg/mL; versus vehicle
T2 construct: Jurkat E6.1 cell line, which endogenously expresses α4β1 integrin; host or cells: Jurkat E6.1
From the text: Integrin functions are regulated by a number of conformational changes in the protein itself. […] Conformational changes can be evaluated by using conformationally sensitive antibodies which specifically recognize epitopes exposed only in a defined structural conformation. To better depict peptidomimetics–α4β1 integrin interactions, we employed PE-conjugated HUTS-21 mAb that recognizes an epitope mapped to the hybrid domain of the β1 subunit.
Conversely, antagonists 3, 8, and 13, although binding to α4β1 integrin as previously shown, were not able to induce any conformational rearrangement, showing very low binding of HUTS-21 mAb.
Flow cytometry analysis was performed as previously described, with the following modifications. Jurkat E6.1 cells were resuspended in 1% BSA in HBSS (50,000 cells/sample); then, FN (10 μg/mL) and two concentrations of the best peptidomimetics (100–1 nM) were added to the cells for 30 min. Thereafter, phycoerythrin (PE)-conjugated, conformational-sensitive HUTS-21 mAb (PE mouse anti-human CD29 antibody, Becton Dickinson Italia, Milan, Italy) (20 μL/sample) was added for 45 min at room temperature; after two washes, Jurkat E6.1 cells were suspended in PBS, and 10,000 cells/sample were acquired in a Guava®EasyCyte Flow Cytometer. The data are presented as the mean fluorescence intensity (MFI). Data were normalized with the relative fluorescence for nonspecific binding evaluated by exposing the cells to an isotype control mAb set to 0.

α4β1 integrin [2] = biological target: T2, α4β1 integrin; assay: α4β1 integrin-mediated Jurkat cell adhesion to VCAM-1; settings: Jurkat cell adhesion to VCAM-1 (2 μg/mL); antag. = reduced cell adhesion; mean ± SD
Description: as §1, §2, §3, §4

T1 sequence (P05107 23-769, other chains not shown): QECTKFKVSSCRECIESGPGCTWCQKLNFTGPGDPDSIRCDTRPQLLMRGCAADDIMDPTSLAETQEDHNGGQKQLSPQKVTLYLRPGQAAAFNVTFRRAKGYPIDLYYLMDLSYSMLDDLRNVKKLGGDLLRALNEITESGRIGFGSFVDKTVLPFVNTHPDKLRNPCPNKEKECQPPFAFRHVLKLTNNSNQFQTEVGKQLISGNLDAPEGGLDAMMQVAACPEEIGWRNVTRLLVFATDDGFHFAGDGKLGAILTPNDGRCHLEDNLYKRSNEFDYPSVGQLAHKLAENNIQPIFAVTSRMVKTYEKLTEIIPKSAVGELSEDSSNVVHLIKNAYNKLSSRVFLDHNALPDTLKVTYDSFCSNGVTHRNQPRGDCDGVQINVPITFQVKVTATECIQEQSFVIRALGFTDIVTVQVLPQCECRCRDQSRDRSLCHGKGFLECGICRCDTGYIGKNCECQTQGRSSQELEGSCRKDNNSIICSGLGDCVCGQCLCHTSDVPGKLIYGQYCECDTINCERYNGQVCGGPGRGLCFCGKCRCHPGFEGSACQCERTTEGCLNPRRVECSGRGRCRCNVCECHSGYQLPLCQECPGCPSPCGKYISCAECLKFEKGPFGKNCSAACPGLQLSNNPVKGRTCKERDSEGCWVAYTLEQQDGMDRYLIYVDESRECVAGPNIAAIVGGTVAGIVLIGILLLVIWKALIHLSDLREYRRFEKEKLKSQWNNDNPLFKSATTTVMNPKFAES
T2 sequence (P13612 34-1032): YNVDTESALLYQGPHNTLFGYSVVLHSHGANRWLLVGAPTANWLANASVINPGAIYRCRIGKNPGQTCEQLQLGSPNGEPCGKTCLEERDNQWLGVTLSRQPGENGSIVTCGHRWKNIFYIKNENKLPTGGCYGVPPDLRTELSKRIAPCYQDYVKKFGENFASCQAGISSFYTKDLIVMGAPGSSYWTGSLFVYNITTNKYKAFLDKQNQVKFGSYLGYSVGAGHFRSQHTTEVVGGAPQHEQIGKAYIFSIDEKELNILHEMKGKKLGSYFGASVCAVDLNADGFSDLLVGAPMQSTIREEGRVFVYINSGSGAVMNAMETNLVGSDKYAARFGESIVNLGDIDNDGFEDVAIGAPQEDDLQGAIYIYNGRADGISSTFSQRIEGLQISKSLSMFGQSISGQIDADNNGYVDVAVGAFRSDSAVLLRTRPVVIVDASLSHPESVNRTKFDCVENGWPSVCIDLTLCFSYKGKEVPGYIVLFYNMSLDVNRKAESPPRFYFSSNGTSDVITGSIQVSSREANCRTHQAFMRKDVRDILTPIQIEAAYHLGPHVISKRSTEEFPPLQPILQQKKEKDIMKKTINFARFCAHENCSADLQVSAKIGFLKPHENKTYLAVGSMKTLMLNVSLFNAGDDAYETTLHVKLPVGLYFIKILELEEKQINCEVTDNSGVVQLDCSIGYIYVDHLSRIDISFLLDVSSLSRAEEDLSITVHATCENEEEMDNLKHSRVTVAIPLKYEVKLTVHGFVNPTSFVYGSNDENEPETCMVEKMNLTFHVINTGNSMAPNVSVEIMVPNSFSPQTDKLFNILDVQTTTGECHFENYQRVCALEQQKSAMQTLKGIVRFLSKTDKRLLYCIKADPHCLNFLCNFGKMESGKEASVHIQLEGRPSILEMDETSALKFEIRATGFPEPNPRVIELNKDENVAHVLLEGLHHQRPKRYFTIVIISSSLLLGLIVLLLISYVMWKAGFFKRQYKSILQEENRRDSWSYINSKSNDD
T2 sequence (P05556 21-798): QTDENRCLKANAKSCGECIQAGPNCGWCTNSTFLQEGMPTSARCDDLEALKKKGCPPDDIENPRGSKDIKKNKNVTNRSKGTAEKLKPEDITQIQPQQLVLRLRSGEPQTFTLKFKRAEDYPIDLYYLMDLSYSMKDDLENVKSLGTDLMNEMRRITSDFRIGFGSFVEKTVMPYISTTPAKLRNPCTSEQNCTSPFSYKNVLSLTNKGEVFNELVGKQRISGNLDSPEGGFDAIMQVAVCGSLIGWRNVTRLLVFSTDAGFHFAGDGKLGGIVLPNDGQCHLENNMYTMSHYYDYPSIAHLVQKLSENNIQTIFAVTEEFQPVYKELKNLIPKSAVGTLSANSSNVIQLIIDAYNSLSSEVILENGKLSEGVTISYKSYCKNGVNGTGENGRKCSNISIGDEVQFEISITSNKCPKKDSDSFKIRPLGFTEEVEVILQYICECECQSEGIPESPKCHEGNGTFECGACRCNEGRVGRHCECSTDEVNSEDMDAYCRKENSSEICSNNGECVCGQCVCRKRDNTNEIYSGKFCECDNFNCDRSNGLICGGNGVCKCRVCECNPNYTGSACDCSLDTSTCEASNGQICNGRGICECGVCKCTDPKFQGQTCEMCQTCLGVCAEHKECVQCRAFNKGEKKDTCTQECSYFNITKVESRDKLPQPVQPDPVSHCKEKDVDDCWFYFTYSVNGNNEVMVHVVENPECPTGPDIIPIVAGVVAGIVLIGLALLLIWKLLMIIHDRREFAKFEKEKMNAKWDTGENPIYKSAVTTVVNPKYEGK

IC50 (αMβ2 integrin) | IC50 (α4β1 integrin [2]) | EC50 (αMβ2 integrin; agonist = increased number of adherent cells) | SMILES | binding of HUTS-21 mAb (MFI) (α4β1 integrin [1])
76 nM | 975 nM |  | CC(=O)N[C@@H](CNC(=O)Cc1ccc(NC(=O)Nc2ccccc2C)cc1)C(=O)NCC(=O)O [compound 3] | not able to increase the binding of HUTS-21 mAb
> 5000 nM | 54 nM |  | CCCNC(=O)[C@@H](CC(=O)NCC(=O)O)NC(=O)Cc1ccc(NC(=O)Nc2ccccc2C)cc1 [compound 8] | not able to increase the binding of HUTS-21 mAb
 | 879 nM | 285 nM | Cc1ccccc1NC(=O)Nc1ccc(CNC(=O)C[C@@H](C)NC(=O)CC(=O)O)cc1 [compound 13] | not able to increase the binding of HUTS-21 mAb
